The results in this text go back to patent US8481042B2, “Conjugates of pyrrolo[1,4]benzodiazepine dimers as anticancer agents” (priority 2009, dated 2013).

Format in all cases: cell-based
The subject of one assay is MDA-MB-231 cells. The assay can be described thus: Inhibition of the proliferation of MDA-MB-231 cells by compounds of formula IA (14C-thymidine pulse at 96 h). The conditions noted are these: Homo sapiens; MDA-MB-231, 3 days culture, 14C-thymidine incorporation at 96 h; read-out: Inhibition of the proliferation (14C-thymidine pulse at 96 h) IC50 MDA-MB231. The procedure:
(§1) Evaluation of the Inhibition of the Proliferation of the MDA-MB-231, MDA-A1 and HCT116 Cell Lines by the Compounds of Formula IA with ZbRb=−OMe and Y═Y′=−OMe
(§2) The MDA-MB-231, MDA-A1 or HCT116 cells in their exponential growth phase are trypsinized and resuspended in their respective culture medium (DMEM/F12 Gibco #21331, 10% FCS Gibco #10500-056, […] Gibco #25030 for the MDA cells; DMEM Gibco #11960, 10% FCS Gibco #10500-056, 2 mM glutamine Gibco #25030 for the HCT116 cells). The cell suspension is seeded in Cytostar 96-well culture plates (GE Healthcare Europe, #RPNQ0163) in the complete culture medium containing serum at a density of 5000 cells/well (MDA-MB-231, MDA-A1, HCT116). After incubation for 4 hours, successive dilutions of the tomaymycin dimers are added to the wells in triplicate for each concentration. The cells are cultured for 3 days at 37° C. under an atmosphere containing 5% CO2 in the presence of the cytotoxic agents. On the 4th day, 10 μl of a ^14C-thymidine solution (0.1 μCi/well, Perkin Elmer #NEC56825000) are added to each well. The incorporation of ^14C-thymidine is measured 96 hours after the start of the experiment using a MicroBeta radioactivity counter (Perkin Elmer). The data are expressed in the form of a % of survival by determining the ratio between the count obtained with the cells treated with the cytotoxic agent and the count obtained with the cells of the control wells (treated with the culture medium alone).
Background: Uptake of a labelled nucleoside into DNA is a usual measure of proliferation.

The test system of the next assay is HCT116 cells. Briefly: Inhibition of the proliferation of HCT116 cells by compounds of formula IA (14C-thymidine pulse at 96 h). The conditions noted are these: Homo sapiens, HCT-116; HCT116, 3 days culture, 14C-thymidine incorporation at 96 h. The procedure: as §1, §2
The subject of the next assay is MDA-A1 cells. Briefly: Inhibition of the proliferation of MDA-A1 cells by compounds of formula IA (14C-thymidine pulse at 96 h). The conditions noted are these: MDA-A1, 3 days culture, 14C-thymidine incorporation at 96 h. The procedure: as §1, §2

Consider `C/C=C1\C[C@H]2C=Nc3cc(OCc4cc(OCCN5CCN(C(=O)CCC(C)(C)SCC(=O)NCCOCCOCCOCCOC(=O)OC)CC5)cc(COc5cc6c(cc5OC)C(=O)N5C/C(=C/C)C[C@H]5C=N6)n4)c(OC)cc3C(=O)N2C1`, for which the values for the IC50 in the assay on MDA-MB-231 cells, in the assay on HCT116 cells and in the assay on MDA-A1 cells were 0.45 nM, 1.25 nM and more than 10 nM, respectively.
The matching figures for `C/C=C1\C[C@H]2C=Nc3cc(OCc4cc(OCCN(C)CC(C)(C)SCC(=O)NCCOCCOCCOCCOCCC(=O)OC)cc(COc5cc6c(cc5OC)C(=O)N5C/C(=C/C)C[C@H]5C=N6)n4)c(OC)cc3C(=O)N2C1`: 0.009 nM, 0.03 nM and 1.99 nM.
`C/C=C1\C[C@H]2C=Nc3cc(OCc4cc(OCCN(C)CC(C)(C)SCC(=O)N(C)CCOCCOCCOCCOCCC(=O)OC)cc(COc5cc6c(cc5OC)C(=O)N5C/C(=C/C)C[C@H]5C=N6)n4)c(OC)cc3C(=O)N2C1`: the figures for the IC50 with MDA-MB-231 cells, in the assay on HCT116 cells and in the assay with MDA-A1 cells were 0.07 nM, 0.12 nM and 2.26 nM, respectively.
With `C/C=C1\C[C@H]2C=Nc3cc(OCc4cc(COc5cc6c(cc5OC)C(=O)N5C/C(=C/C)C[C@H]5C=N6)cc(C(C)(C)SCC(=O)NCCOCCOCCOCCOCCC(=O)OC)c4)c(OC)cc3C(=O)N2C1`, the IC50 in the assay with MDA-MB-231 cells was 0.084 nM; in the assay with HCT116 cells it was 0.127 nM; in the assay on MDA-A1 cells, more than 10 nM.
